Results on 23 compounds are retold here after patent publication US20240083897A1, “GCN2 MODULATING COMPOUNDS AND USES THEREOF” (HiberCell, Inc., priority 2021, published 2024).

GCN2, sequence (Q9P2K8 whole entry): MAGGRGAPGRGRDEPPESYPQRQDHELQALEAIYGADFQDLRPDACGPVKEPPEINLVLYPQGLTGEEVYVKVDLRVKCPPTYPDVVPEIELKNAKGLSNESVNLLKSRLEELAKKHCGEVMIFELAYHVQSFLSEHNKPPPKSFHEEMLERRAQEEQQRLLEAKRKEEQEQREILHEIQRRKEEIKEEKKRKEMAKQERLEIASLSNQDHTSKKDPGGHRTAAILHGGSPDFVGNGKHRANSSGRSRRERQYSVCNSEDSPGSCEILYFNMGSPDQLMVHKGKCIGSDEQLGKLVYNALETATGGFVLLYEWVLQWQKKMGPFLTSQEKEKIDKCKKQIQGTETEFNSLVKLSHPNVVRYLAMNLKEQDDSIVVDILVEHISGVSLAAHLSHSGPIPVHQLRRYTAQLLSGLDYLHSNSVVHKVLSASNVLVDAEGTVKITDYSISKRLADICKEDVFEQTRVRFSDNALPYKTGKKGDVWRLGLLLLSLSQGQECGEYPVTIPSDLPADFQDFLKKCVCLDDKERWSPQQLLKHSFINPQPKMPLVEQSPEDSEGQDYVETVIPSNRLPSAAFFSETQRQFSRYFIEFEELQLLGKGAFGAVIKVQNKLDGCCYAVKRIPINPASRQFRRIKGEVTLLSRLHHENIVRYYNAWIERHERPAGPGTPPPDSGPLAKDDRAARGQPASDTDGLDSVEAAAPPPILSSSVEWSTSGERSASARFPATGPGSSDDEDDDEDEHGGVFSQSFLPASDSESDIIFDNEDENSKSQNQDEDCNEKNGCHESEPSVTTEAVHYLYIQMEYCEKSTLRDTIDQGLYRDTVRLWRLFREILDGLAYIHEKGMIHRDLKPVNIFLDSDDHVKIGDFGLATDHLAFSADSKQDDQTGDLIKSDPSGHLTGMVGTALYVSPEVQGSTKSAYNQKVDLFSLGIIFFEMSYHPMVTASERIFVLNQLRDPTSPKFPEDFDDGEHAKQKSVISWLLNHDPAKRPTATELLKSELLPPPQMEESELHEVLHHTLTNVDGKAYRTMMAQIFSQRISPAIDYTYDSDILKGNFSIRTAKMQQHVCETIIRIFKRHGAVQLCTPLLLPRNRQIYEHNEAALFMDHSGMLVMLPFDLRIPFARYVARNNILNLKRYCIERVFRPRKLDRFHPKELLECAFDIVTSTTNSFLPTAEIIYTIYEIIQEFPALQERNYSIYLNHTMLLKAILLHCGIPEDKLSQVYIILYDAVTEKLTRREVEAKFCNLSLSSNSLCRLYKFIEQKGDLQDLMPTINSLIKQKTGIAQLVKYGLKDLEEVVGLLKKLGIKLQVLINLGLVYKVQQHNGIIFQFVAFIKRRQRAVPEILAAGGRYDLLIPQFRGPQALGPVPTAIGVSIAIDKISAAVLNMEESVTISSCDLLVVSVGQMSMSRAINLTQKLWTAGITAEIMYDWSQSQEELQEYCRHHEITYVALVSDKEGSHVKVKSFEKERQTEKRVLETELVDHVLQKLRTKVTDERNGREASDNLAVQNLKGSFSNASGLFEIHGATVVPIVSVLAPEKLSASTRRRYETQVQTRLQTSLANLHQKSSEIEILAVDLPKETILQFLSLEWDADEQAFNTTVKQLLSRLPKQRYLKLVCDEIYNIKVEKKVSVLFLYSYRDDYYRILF

The first assay addresses GCN2 (Homo sapiens (Human), UniProt Q9P2K8). The assay can be described thus: TR-FRET biochemical assay for inhibition of GCN2.
Details: not given
The compound `CNC(=O)c1ncn2c1CN(C)[C@@H](c1c(F)ccc(NS(=O)(=O)c3cc(Cl)cnc3OC)c1F)C2` (single isomer, unassigned) [Compound 33-2] gave an IC50 of 500 to 1000 nM.

`CNC(=O)c1ncn2c1CCC(c1c(Cl)ccc(NS(=O)(=O)c3cc(F)cnc3OC)c1F)C2` (stereo in doubt) [Compound 155-2, (6S)-6-[6-chloro-2-fluoro-3-(5-fluoro-2-methoxypyridine-3-sulfonamido)phenyl]-N-methyl-5H,6H,7H,8H-imidazo[1,5-a]pyridine-1-carboxamide] came in with a 50% inhibitory concentration (IC50) of 50 to 500 nM.

With `CNC(=O)c1ncn2c(C)c(-c3c(F)ccc(NS(=O)(=O)c4cc(Cl)cnc4OC)c3F)ccc12` [Compound 11, 6-[3-(5-chloro-2-methoxypyridine-3-sulfonamido)-2,6-difluorophenyl]-N,5-dimethyl imidazo[1,5-a]pyridine-1-carboxamide], the IC50 fell in the range of 50 to 500 nM.

`CNC(=O)c1ncn2cc(-c3c(F)ccc(NS(=O)(=O)c4cc(Cl)cnc4OC)c3F)c(OC)nc12` [Compound 17, 3-[3-(5-chloro-2-methoxypyridine-3-sulfonamido)-2,6-difluorophenyl]-2-methoxy-N-methylimidazo[1,5-a]pyrimidine-8-carboxamide] displayed a 50% inhibitory concentration (IC50) of 50 to 500 nM.

In turn, `CNC(=O)c1ncn2cc(-c3c(F)ccc(NS(=O)(=O)c4cc(Cl)cnc4OC)c3F)c(=O)n(C)c12` [Compound 22, 3-[3-(5-chloro-2-methoxypyridine-3-sulfonamido)-2,6-difluorophenyl]-N,1-dimethyl-2-oxoimidazo[1,5-a]pyrimidine-8-carboxamide] showed an IC50 of 50 to 500 nM.

`CNC(=O)c1ncn2cc(-c3c(F)ccc(NS(=O)(=O)c4cc(C#N)cc(C(F)(F)F)c4)c3F)ccc12` [Compound 23, 6-[3-[3-cyano-5-(trifluoromethyl)benzenesulfonamido]-2,6-difluorophenyl]-N-methylimidazo[1,5-a]pyridine-1-carboxamide] registered a concentration for half-maximal inhibition (IC50) of 50 to 500 nM.

Still in this assay, the particulars now being: GCN2 2 nM, 100 nM GFP-eIF2a, 150 μM ATP, TR-FRET.
In the case of `CNC(=O)c1ncn2c1CN(C)[C@H](c1c(F)ccc(NS(=O)(=O)c3cc(Cl)cnc3OC)c1F)C2` (single isomer, unassigned) [Compound 33-1], the half-maximal inhibitory concentration (IC50) was over 1000 nM.

`Cc1ncc(Cl)cc1S(=O)(=O)Nc1ccc(F)c([C@H]2CCc3c(-c4ncc[nH]4)ncn3C2)c1F` (single isomer, unassigned) [Compound 84-1] had an IC50 of under 50 nM.

The compound `Cc1ncc(Cl)cc1S(=O)(=O)Nc1ccc(F)c([C@@H]2CCc3c(-c4ncc[nH]4)ncn3C2)c1F` (single isomer, unassigned) [Compound 84-2] showed a 50% inhibitory concentration (IC50) of under 50 nM.

Turning to `CNC(=O)c1ncn2c1CCC(c1c(Cl)ccc(NS(=O)(=O)c3cc(F)cnc3OC)c1F)C2` (stereo in doubt) [Compound 155-1, (6R)-6-[6-chloro-2-fluoro-3-(5-fluoro-2-methoxypyridine-3-sulfonamido)phenyl]-N-methyl-5H,6H,7H,8H-imidazo[1,5-a]pyridine-1-carboxamide], the concentration for half-maximal inhibition (IC50) is under 50 nM.

Turning to `CNC(=O)c1ncn2nc(-c3c(F)ccc(NS(=O)(=O)c4cc(Cl)cnc4C)c3F)ccc12` [Compound 5, 2-[3-(5-chloro-2-methylpyridine-3-sulfonamido)-2,6-difluorophenyl]-N-methylimidazo[1,5-b]pyridazine-5-carboxamide], the IC50 was under 50 nM.

The compound `CNC(=O)c1ncn2cc(-c3c(F)ccc(NS(=O)(=O)c4cc(C#N)cnc4C)c3F)ccc12` [Compound 9, 6-[3-(5-cyano-2-methylpyridine-3-sulfonamido)-2,6-difluorophenyl]-N-methylimidazo[1,5-a]pyridine-1-carboxamide] showed a half-maximal inhibitory concentration (IC50) of under 50 nM.

For the compound `CNC(=O)c1ncn2cc(-c3c(F)ccc(NS(=O)(=O)c4cc(F)cc5c4CCC5O)c3F)ccc12` (centres unmarked) [Compound 10, 6-[2,6-difluoro-3-(6-fluoro-1-hydroxy-2,3-dihydro-1H-indene-4-sulfonamido)phenyl]-N-methylimidazo[1,5-a]pyridine-1-carboxamide], the IC50 was under 50 nM.

Consider `CNC(=O)c1ncn2nc(-c3c(F)ccc(NS(=O)(=O)c4cc(F)cnc4C)c3F)ccc12` [Compound 12, 2-[2,6-difluoro-3-(5-fluoro-2-methylpyridine-3-sulfonamido)phenyl]-N-methylimidazo[1,5-b]pyridazine-5-carboxamide], for which the concentration for half-maximal inhibition (IC50) is under 50 nM.

In turn, `CNC(=O)c1ncn2cc(-c3c(F)ccc(NS(=O)(=O)c4cc(C(F)(F)F)cnc4OC)c3F)ccc12` [Compound 13, 6-[2,6-difluoro-3-[2-methoxy-5-(trifluoromethyl)pyridine-3-sulfonamido]phenyl]-N-methylimidazo[1,5-a]pyridine-1-carboxamide] had a half-maximal inhibitory concentration (IC50) of under 50 nM.

`CNC(=O)c1ncn2c(OC)c(-c3c(F)ccc(NS(=O)(=O)c4cc(Cl)cnc4OC)c3F)ccc12` [Compound 15, 6-[3-(5-chloro-2-methoxypyridine-3-sulfonamido)-2,6-difluorophenyl]-5-methoxy-N-methylimidazo[1,5-a]pyridine-1-carboxamide] registered an IC50 of over 1000 nM.

Regarding `COc1ncc(F)cc1S(=O)(=O)Nc1ccc(F)c(-c2ccc3c(-c4ncc[nH]4)ncn3c2)c1F` [Compound 18, N-[2,4-difluoro-3-[1-(1H-imidazol-2-yl)imidazo[1,5-a]pyridin-6-yl]phenyl]-5-fluoro-2-methoxypyridine-3-sulfonamide], the IC50 was under 50 nM.

`Cc1ncc(F)cc1S(=O)(=O)Nc1ccc(F)c(-c2ccc3c(-c4ncc[nH]4)ncn3c2)c1F` [Compound 19, N-[2,4-difluoro-3-[1-(1H-imidazol-2-yl)imidazo[1,5-a]pyridin-6-yl]phenyl]-5-fluoro-2-methylpyridine-3-sulfonamide] had a concentration for half-maximal inhibition (IC50) of under 50 nM.

`COc1ncc(C#N)cc1S(=O)(=O)Nc1ccc(F)c(-c2ccc3c(-c4ncc[nH]4)ncn3c2)c1F` [Compound 20, 5-cyano-N-[2,4-difluoro-3-[1-(1H-imidazol-2-yl)imidazo[1,5-a]pyridin-6-yl]phenyl]-2-methoxypyridine-3-sulfonamide] registered an IC50 of under 50 nM.

The compound `CNC(=O)c1ncc2c(F)c(-c3c(F)ccc(NS(=O)(=O)c4cc(Cl)cnc4OC)c3F)ccn12` [Compound 21, 7-[3-(5-chloro-2-methoxypyridine-3-sulfonamido)-2,6-difluorophenyl]-8-fluoro-N-methylimidazo[1,5-a]pyridine-3-carboxamide] returned an IC50 of under 50 nM.

On to `CNC(=O)c1ncn2c(NC)c(-c3c(F)ccc(NS(=O)(=O)c4cc(Cl)cnc4OC)c3F)ccc12` [Compound 24, 6-[3-(5-chloro-2-methoxypyridine-3-sulfonamido)-2,6-difluorophenyl]-N-methyl-5-(methylamino)imidazo[1,5-a]pyridine-1-carboxamide], for which the IC50 was over 1000 nM.

`Cc1ncc(Cl)cc1S(=O)(=O)Nc1ccc(F)c(-c2ccc3c(-c4ncc[nH]4)ncn3c2)c1F` [Compound 25, 5-chloro-N-[2,4-difluoro-3-[1-(1H-imidazol-2-yl)imidazo[1,5-a]pyridin-6-yl]phenyl]-2-methylpyridine-3-sulfonamide]: the IC50 was under 50 nM.

In turn, `COc1ncc(Cl)cc1S(=O)(=O)Nc1ncc(F)c(-c2ccc3c(-c4ncc[nH]4)ncn3c2)c1F` [Compound 26, 5-chloro-N-[3,5-difluoro-4-[1-(1H-imidazol-2-yl)imidazo[1,5-a]pyridin-6-yl]pyridin-2-yl]-2-methoxypyridine-3-sulfonamide] yielded an IC50 of under 50 nM.
